Results on 3 compounds are retold here after patent publication US20070275855A1, “Herbicidal Composition” (ISHIHARA SANGYO KAISHA, LTD., priority 2004, published 2007).

What all share (type): in vivo
Experiment [1] concerns barnyardgrass (Echinochloa oryzicola vasing). The experiment in a line: Test Example 5: paddy pot test, submerged application at 2.4 to 3.2 leaf stage. From the text:
(§1) Growth inhibition rate (%)=0% (equivalent to the non-treated area) to 100% (complete kill)
Paddy field soil was put into a 1/10,000 are pot, and seeds of barnyardgrass (Echinochloa oryzicola vasing) were sown and left to stand under an irrigated condition with a water depth of 3.5 cm. When barnyardgrass reached 2.4 to 3.2 leaf stage, wettable powders of compound A2 compound B1 and azimsulfuron were, respectively, diluted with water and applied under submerged condition so that the active ingredients became the prescribed amounts, respectively. The state of growth was visually observed 29 days after application and evaluated in the same manner as in the above Test Example 1.

The test system is the same in experiment [2]. The experiment is described as follows: Test Example 1: paddy pot test, submerged application on the next day after sowing. The settings on record: for Growth inhibition rate (%) Observed: next day after sowing, 21 days after application.
Description: (§2) When the herbicidal activity in a case where two active ingredients are combined, is larger than the simple sum of the respective herbicidal activities of the two active ingredients (the expected activity), it is called a synergistic effect. The activity expected by the combination of two active ingredients can be calculated as follows (Colby S. R., “Weed”, vol. 15, p. 20-22, 1967). E=α+β−(α×β÷100) where α: growth inhibition rate when treated with x (g/a) of herbicide X,
(§3) β: growth inhibition rate when treated with y (g/a) of herbicide Y,
(§4) E: growth inhibition rate expected when treated with x (g/a) of herbicide X and y (g/a) of herbicide Y.
(§5) Namely when the actual growth inhibition rate (observed value) is larger than the growth inhibition rate by the above calculation (expected value), the activity by the combination can be regarded as showing a synergistic effect.
Paddy field soil was put into a 1/1,700 are pot, and seeds of barnyardgrass (Echinochloa oryzicola vasing) were sown and left to stand under an irrigated condition with a water depth of 3.5 cm. On the next day after the sowing, a wettable powder of compound A2 diluted with water and a microemulsion of compound B1 as it was were, respectively, applied under submerged condition so that the active ingredients became the prescribed amounts, respectively The state of growth was visually observed 21 days after application and the growth inhibition rate (%) evaluated in accordance with the following evaluation standard (observed value) and the growth inhibition rate (%) calculated by the above-mentioned Colby method (expected value) are shown in Table 1.
as §1

The subject of experiment [3] is Japanese bulrush (Scirpus juncoides). The experiment is described as follows: Test Example 4: paddy pot test, submerged application at 2.2 to 2.8 leaf stage. The settings on record: for Growth inhibition rate (%) Observed: 2.2 to 2.8 leaf stage, 29 days after application.
Description: as §1
Paddy field soil was put into a 1/1,700 are pot, and seeds of Japanese bulrush (Scirpus juncoides) were sown and left to stand under an irrigated condition with a water depth of 3.5 cm. When Japanese bulrush reached 2.2 to 2.8 leaf stage, a wettable powder of compound A2, a wettable powder of compound B1 and an emulsifiable concentrate of benfuresate were, respectively, diluted with water and applied under submerged condition so that the active ingredients became the prescribed amounts, respectively. The state of growth was visually observed 29 days after application and evaluated in the same manner as in the above Test Example 1.

Experiment [4] has as its system barnyardgrass (Echinochloa oryzicola vasing). The experiment is described as follows: Test Example 2: paddy pot test, submerged application at 2 leaf stage. The settings on record: for Growth inhibition rate (%) Observed: 2 leaf stage, 18 days after application.
Description: as §2, §3, §4, §5, §1
Paddy field soil was put into a 1/10,000 are pot, and seeds of barnyardgrass (Echinochloa oryzicola vasing) were sown and left to stand under an irrigated condition with a water depth of 3.5 cm. When barnyardgrass reached 2 leaf stage, a wettable powder of compound A2 diluted with water and a microemulsion of compound B1 as it was were, respectively, applied under submerged condition so that the active ingredients became the prescribed amounts, respectively. The state of growth was visually observed 18 days after application and evaluated in the same manner as in the above Test Example 1.

For experiment [5] the test system is unchanged. The experiment in a line: Test Example 3: paddy pot test, submerged application at 3 leaf stage. The settings on record: 504 h, 21 days after application, read-out: Growth inhibition rate (%) Observed.
Description: as §2, §3, §4, §5, §1
Paddy field soil was put into a 1/10,000 are pot, and seeds of barnyardgrass (Echinochloa oryzicola vasing) were sown and left to stand under an irrigated condition with a water depth of 3.5 cm. […] The state of growth was visually observed 21 days after application and evaluated in the same manner as in the above Test Example 1.

Setting [6] is: Echinochloa oryzicola, 504 h, read-out: Growth inhibition rate (%) Observed.
Setting [7] is: Schoenoplectiella juncoides, 696 h, read-out: Growth inhibition rate (%) Observed.
The mark [8] stands for this setting: Echinochloa oryzicola, 432 h, read-out: Growth Inhibition rate (%) Observed.

The structures appear in SMILES notation.

For the compound `COCC(=O)OC(c1ncccc1S(=O)(=O)NC(=O)Nc1nc(OC)cc(OC)n1)C(C)F` (stereo not drawn) [Compound A2, flucetosulfuron], the “Growth inhibition rate (%) Observed” value was found to be 96% in experiment [1] (0.11 g/a, 2.4 to 3.2 leaf stage, 29 days after application); 95% in experiment [2] (0.1 g/a); 98% in experiment [2] (0.2 g/a); 87% in experiment [3] (0.22 g/a); 84% in experiment [4] (0.05 g/a); 98% in experiment [4] (0.10 g/a). Also, the “Growth inhibition rate (%) Observed” value in experiment [4] (0.15 g/a) worked out at 99%.

Regarding `CCS(=O)(=O)Oc1ccc2c(c1)C(C)(C)CO2` [Benfuresate, benfuresate, reference compound], the “Growth inhibition rate (%) Observed” value in experiment [3] (6 g/a) worked out at 90%; in experiment [3] (9 g/a), 89%.

With `CCOC(=O)C(Cl)Cc1cc(-n2nc(C)n(C(F)F)c2=O)c(F)cc1Cl` (stereo not drawn) [Compound B1, carfentrazone-ethyl], in experiment [1] (Echinochloa oryzicola, 696 h, read-out: Growth inhibition rate (%) Observed), the inhibition (commonly how much of the control response was suppressed) at 37.5 g/ha worked out at 5%. In addition, the inhibition at 11.3 g/ha in experiment [5] (0.113 g/a) came to 0%. The inhibition at 22.5 g/ha in experiment [5] (0.225 g/a) turned out to be 0%. In addition, in experiment [2] (setting [6]), the inhibition at 20 g/ha is 0% and the inhibition at 30 g/ha was 0%. Also, in experiment [3] (setting [7]), the inhibition at 50 g/ha was 80%, the inhibition at 100 g/ha came to 100% and the inhibition at 150 g/ha came to 99%. In experiment [4] (setting [8]), the inhibition at 30 g/ha was 3%, the inhibition at 45 g/ha turned out to be 8%, the inhibition at 67.5 g/ha turned out to be 13% and the inhibition at 101.2 g/ha worked out at 18%.
